Columns and labels:
HT1080 cells [1] = test: Intracellular uptake amount of MEND (NBD-DOPE labeled lipid, FACS); type: cell-based; settings: NBD-DOPE label, lipid 27.5 nmol/well, 1 hr, DMEM (FBS+)
Procedure: Using B-2 (Example 1), B-2-1 (Comparative Example 1), and DODAP (Comparative Example 2) as cationic lipids, MENDs having a composition of cationic lipid:SOPE:Chol=3:4:3 were prepared by the method described in [Experimental Example 1] (2). For the preparation, PEG2000DSG was used as PEG lipid, and MEND solutions corresponding to 0.55 mM of the lipid concentration were prepared. For cationic MEND, lipids having a composition of DOTAP (Comparative Example 3):DOPE:Chol:=3:4:3 were used, and the cationic MEND was prepared according to the method described in [Experimental Example 1] (3). The lipids of various MENDs were labeled with fluorescence according to the method described in [Experimental Example 1] (5).
HT1080 cells were plated on a 6-well plate at 2×10^5 cells/2 mL/well 24 hr before, various sample MENDs were diluted with DMEM (FBS+) to a lipid concentration of 27.5 nmol/l mL/well and transfected into the well. After 1 hr, MEND-containing DMEM was removed, and the cells were washed twice with heparin (20 units/mL, 1 mL), and further once with PBS(−) (1 mL). 0.05% Trypsin solution (500 μL) was added, and the mixture was stood in an incubator at 37° C. for 3 min. […] The suspension was passed through a 44 μm nylon mesh immediately before the measurement, and the fluorescence intensity of intracellular NBD was measured.

HT1080 cells [2] = test: Decapsulation efficiency over time (3, 6, 9, 12 hr); type: cell-based; settings: 3, 6, 9, 12 hr after transfection
From the text: For MEND preparation, Rhodamine-labeled pDNA prepared by the method of [Experimental Example 1] (4) was used. For preparation of MEND encapsulating the rhodamine-labeled pDNA, 50% of the pDNA solution described in [Experimental Example 1] (1) was replaced by the rhodamine-labeled pDNA. In addition, the lipid constituting the MEND was labeled with fluorescence by the method described in [Experimental Example 1] (3). MENDs having a composition of B-2-4 […]:DOPE:Chol=3:3:4, B-2 […]:SOPE:Chol=5:3:2 were prepared by the method described in [Experimental Example 1] (2). For the preparation, PEG2000-DMG was used as PEG lipid, and MEND solutions corresponding to 0.55 mM of the lipid concentration were prepared.
HT1080 cells were plated on a glass bottom dish at 5×10^4 cells/2 mL/dish 24 hr before. MEND was diluted with DMEM (FBS 10%+) to achieve pDNA 1.6 μg/2 mL and transfected into cells. 3, 6, 9, 12 hr later, the cells were washed twice with heparin solution (20 units/mL, 2 mL), Krebs buffer (1 mL) was added, and the images at 3, 6, 9, 12 hr after the transfection were obtained by a confocal laser scan microscope.
Rhodamine-labeled pDNA and lipid membrane of MEND were shown in pseudo colors of red and green, respectively. The decapsulation efficiency was calculated according to the following formula.

HT1080 cells [3] = test: Intracellular uptake pathway: influence of sucrose, amiloride, filipin on gene expression activity; type: cell-based; settings: 0.3M sucrose, 1.5 mM amiloride
Procedure: Using compositions of B-2-4 (Example 4):DOPE:Chol=3:3:4, B-2 (Example 1):SOPE:Chol=5:3:2 as lipid, MENDs were prepared according to [Experimental Example 1] (1), (2). For the preparation, PEG2000-DMG was used as PEG lipid, and MEND solutions corresponding to 0.55 mM of the lipid concentration were prepared.
HT1080 cells were plated on a 24-well plate at 4×10^4 cells/500 μL/well 24 hr before. The medium was changed to DMEM (FBS+) containing filipin at a final concentration of […] 30 min before transfection. The medium was changed to DMEM (FBS+) containing a final concentration of 0.3M sucrose, and 1.5 mM amiloride 15 min before transfection. For transfection, various MENDs were added to the well at 0.8 μg/500 μL/well based on the pDNA amount. Thereafter, the gene expression activity was evaluated by the method described in [Experimental Example 4] (2).

[4] = Electron microscope observation by staining method; type: physicochemical; settings: phosphotungstic acid staining
Procedure: MENDs of B-2 (Example 1) and B-2-4 (Example 4) were prepared according to [Experimental Example 1] (1), (2) and [Experimental Example 15]. For the preparation, PEG2000-DMG was used as PEG lipid, and MEND solutions corresponding to 1.38 mM of the lipid concentration were prepared. A 50% sucrose solution (pH 5.3) (5 mL) was added to a centrifugation tube, on which a 10% sucrose solution (pH 5.3) (5 mL) was layered, and a MEND solution (1.5 mL) was further overlaid to form an discontinuous density gradient. Purification was performed by ultracentrifugation (110000 g, 2 h, 25° C.) (Optima™ L-90K Ultracentrifuge, Sw41Ti, BECKMAN). The interface (4 ml) of sucrose density 10% and 50% was recovered, and sucrose was removed by ultrafiltration (1000 g, 3 min, 25° C.) to give a sample solution. A 2-fold diluted sample solution was adsorbed to a 400 mesh carbon film TEM grid, which was absorbed by a filter paper. A 2% phosphotungstic acid solution (pH 7.0) was added and the mixture was stood for 10 seconds. For observation, a transmission electron microscope (JEM-1200EX, JEOL Ltd.) was used. Accelerating voltage was set to 80 kV, and images were taken by a CCD camera (VELETA, JEOL Ltd.).

SMILES: CCCCCCCC/C=C\CCCCCCCC(=O)OCC(CN(C)C)OC(=O)CCCCCCC/C=C\CCCCCCCC (centres unmarked) [DODAP, reference compound]
- intracellular uptake amount of MEND (HT1080 cells [1]): extremely low as compared to the MENDs using B-2-1 and DOTAP

SMILES: CC1=C(/C=C/C(C)=C/C=C/C(C)=C/C(=O)OCCCN(C)CCSSCCN(C)CCCOC(=O)/C=C(C)/C=C/C=C(C)/C=C/C2=C(C)CCCC2(C)C)C(C)(C)CCC1 [Example B-2-4]
- decapsulation efficiency (HT1080 cells [2]): gradual decapsulation with the passage of time
- gene expression with sucrose, amiloride, filipin (HT1080 cells [3]): inhibited by amiloride
- structure of MEND by transmission electron microscope [4]: structure coated with a monolayer lipid membrane

SMILES: CCCCCCCCCCCCCC(=O)OCCCN(C)CCSSCCN(C)CCCOC(=O)CCCCCCCCCCCCC [Example B-2]
- decapsulation efficiency (HT1080 cells [2]): good decapsulation from early stages
- intracellular uptake amount of MEND (HT1080 cells [1]): extremely low as compared to the MENDs using B-2-1 and DOTAP
- gene expression with sucrose, amiloride, filipin (HT1080 cells [3]): inhibited by sucrose and amiloride
- structure of MEND by transmission electron microscope [4]: structure coated with a monolayer lipid membrane
